Laboratory results taken from patent US9241996B2, “Photochemical internalisation of kinase inhibitors” (PCI BIOTECH AS, priority 2008, dated 2016).
Where two headings read alike, the source gives them in different places.

Tests used:
[1] = system: A431 human epithelial carcinoma cell line; experiment: Cell survival by Coulter Counter after TPCS2a photochemical treatment and imatinib (Example 1); assay type: cell-based
Procedure: Cells from the A431 human epithelial carcinoma cell line (75,000 cells/well, 1.5 mL/well) were seeded into 6-well plates (Nunc, Denmark), incubated for 5 hours, then 0.1 μg/mL TPCS2a was added and the cells were further incubated for 18 h (5% v/v CO2, 37° C. in DMEM medium with penicillin 100 U/mL, Glutamine 2 mM, Streptomycin 100 μg/mL). The cells were washed twice with medium (1 mL/well), incubated for 4 hours (37° C., 5% v/v CO2) in serum-containing medium and illuminated for 1, 2 or 4 minutes as shown in FIG. 2.
The cells were washed twice with Trypsin EDTA (200 μL/well) and incubated for 5 minutes (400 μL/well), then 1.5 mL medium was added and the mixture transferred to 10 mL tubes and centrifuged for 3 minutes at 1000 rpm. After removing the medium, 1 mL PBS (Phosphate Buffered Saline) was added and the solution mixed thoroughly. 750 μL was transferred to a beaker with 20 mL PBS and the amount of viable cells was determined with a Coulter Counter apparatus.

A431 cells = experiment: Cell survival by MTT assay after TPCS2a photochemical treatment and imatinib (Example 2); assay type: cell-based, human; details: imatinib up to 25 μM
Procedure: A431 cells (2500 cells/well, 100 μL/well) were seeded into 96-well plates (Nunc, Denmark) and incubated for 5 hours, then 0.1 μg/mL TPCS2a was added and incubated for 18 h (5% v/v CO2, 37° C., DMEM medium with penicillin 100 U/mL, Glutamine 2 mM, Streptomycin 100 μg/mL). […] After a further 72 hours incubation, cell survival was measured by the MTT assay.
The MTT method is based on reduction of a water-soluble tetrazolium salt (MTT) to a purple, insoluble formazan product by mitochondrial dehydrogenases present in living, metabolically active cells. 100 μL medium containing 0.25 μg MTT was added to the cells, followed by 1 h and 30 min of incubation (37° C., 5% v/v CO2). The resulting formazan crystals were dissolved by adding 100 μl DMSO (Sigma, Mo., USA) per well. The 96 well plate was read by a Multiscan EX micro plate reader (Labsystems, Finland) with a 570 nm band pass filter.

EGFR = molecular target: T1, EGFR (Homo sapiens, UniProt P00533); experiment: Western blotting of total and phosphorylated EGFR after PDT, AG1478 and the combination; assay type: cell-based
T1 construct: time dependent effects on total and phosphorylated EGFR after PDT˜LD50, AG1478 (TKI)˜LD50 and the combination treatment in A-431 cells; endogenous in cells; host or cells: A-431 human skin carcinoma cells (ATCC, CRL 1555)
T1 sequence (P00533 25-1210): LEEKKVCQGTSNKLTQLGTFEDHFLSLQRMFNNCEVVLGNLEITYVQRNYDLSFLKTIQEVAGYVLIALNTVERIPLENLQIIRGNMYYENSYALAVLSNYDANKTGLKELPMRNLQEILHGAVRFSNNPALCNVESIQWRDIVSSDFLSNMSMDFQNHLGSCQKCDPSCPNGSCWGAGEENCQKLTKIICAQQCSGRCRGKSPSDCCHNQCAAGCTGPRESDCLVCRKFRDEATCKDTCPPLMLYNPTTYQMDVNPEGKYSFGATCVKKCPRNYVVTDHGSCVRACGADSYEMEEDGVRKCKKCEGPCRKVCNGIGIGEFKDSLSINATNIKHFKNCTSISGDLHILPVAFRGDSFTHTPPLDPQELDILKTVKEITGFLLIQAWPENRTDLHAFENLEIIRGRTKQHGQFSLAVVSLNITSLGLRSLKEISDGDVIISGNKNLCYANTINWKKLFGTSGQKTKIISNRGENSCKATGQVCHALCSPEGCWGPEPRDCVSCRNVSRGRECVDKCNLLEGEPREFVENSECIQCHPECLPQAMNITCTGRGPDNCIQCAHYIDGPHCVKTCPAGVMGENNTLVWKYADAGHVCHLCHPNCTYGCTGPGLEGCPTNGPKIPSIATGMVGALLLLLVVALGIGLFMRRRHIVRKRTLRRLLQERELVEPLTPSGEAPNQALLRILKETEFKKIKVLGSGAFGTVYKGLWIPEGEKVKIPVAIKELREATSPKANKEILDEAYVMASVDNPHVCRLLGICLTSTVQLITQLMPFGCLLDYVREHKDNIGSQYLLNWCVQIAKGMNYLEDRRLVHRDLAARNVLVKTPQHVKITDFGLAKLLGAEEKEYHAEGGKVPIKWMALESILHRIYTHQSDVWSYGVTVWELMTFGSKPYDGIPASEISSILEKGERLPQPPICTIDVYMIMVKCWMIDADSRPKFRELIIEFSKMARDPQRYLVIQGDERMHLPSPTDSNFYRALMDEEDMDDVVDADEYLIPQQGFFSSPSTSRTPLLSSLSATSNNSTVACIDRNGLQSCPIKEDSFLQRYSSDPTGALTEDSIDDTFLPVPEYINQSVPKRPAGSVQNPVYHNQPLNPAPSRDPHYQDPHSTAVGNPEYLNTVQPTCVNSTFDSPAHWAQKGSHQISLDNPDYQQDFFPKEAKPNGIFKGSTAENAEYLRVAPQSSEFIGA
Procedure: (§1) A-431 cells were seeded out and left to fasten for 6 hrs, or longer as described for the different combination treatment regimes with Tyrphostin AG1478, before an 18 hour incubation with 0.1 ug/ml LumiTrans (TPPS2a, meso-tetraphenylporphine with two sulfonate groups on adjacent phenyl rings) (PCI Biotech AS, Oslo, Norway). The cells were then washed twice with drug free medium and chased in new drug free medium for 4 hrs to wash the TPPS2a off the plasma membrane. Cells were then exposed to blue light from LumiSource (PCT Biotech AS) consisting of 4 light tubes delivering light with λ=[…], maximum at 435 nm and irradiance=13.5 mW/cm^2 at different doses as indicated in the figures.
At indicated times after light exposure the cell-medium was removed and cells were incubated for 2 minutes with 100 ng/ml EGF. Cells were then placed on ice and the sample preparation was performed as described before (Weyergang et al., 2007, Biochem. Pharmacol., 74, p226-235). The same amount of lysed cells from each sample, as measured by the absorption of nucleic acids at 260 nm, was subjected to gel electrophoresis on 12% SDS/polyacrylamide gels and blotted to Hybond-P PVDF membranes (Amersham Biosciences, Amersham Place, UK). Immunodetection was carried out using antibodies from Cell Signal Technology (Cell Signalling Technology Beverly, Mass.); EGFR antibody (#2232), Phospho-EGFR antibody (#2236), Anti-mouse IgG, HRP-linked Antibody (#7076) Anti-rabbit IgG, HRP-linked Antibody (#7074). ECL Plus Western blotting Detection Reagents, STORM and Image Quant from GE Healthcare (GE Healthcare, Amersham Place, UK) was used to detect protein bands on the membrane.

[2] = system: A-431 human skin carcinoma; experiment: Growth inhibition (Coulter counting, survival fraction) after PDT with TPPS2a, AG1478 and the combination (Example 3); assay type: cell-based; details: for synergy/antagonism value F: p=0.05
Procedure: The studies were performed using the EGFR positive cell line A-431 human skin carcinoma (ATCC, CRL 1555). The A-431 cells were subcultured two or three times a week in DMEM (Bio Whitaker Europe, Velviers, Belgium). Media were supplied with 10% fetal calf serum (FCS) (GIBCO BRL, Paisley, UK), 100 U/ml penicillin, 100 U/ml streptomycin (Sigma, St. Loice, MO) and 2 mM glutamine (Bio Whittaker, Velviers, Belgium). The cells were grown and incubated in 75 cm^2 flasks (Nunc, Roskilde, Denmark) at 37° C. in a humidified atmosphere containing 5% CO2.
as §1
Growth inhibition measurements were carried out after incubation of the cells for 72 hrs with different concentrations of AG1478 directly after exposure to light. Cell counting was performed with an in-house made Coulter counter after trypsination and resuspension in PBS. Two parallels of each sample were made, and the experiments were reproduced twice at least.
For each experiment the survival fraction (SF) of cells was found by dividing the number of treated cells by the average number of untreated cells in the two parallels. The expected additive effect was computed as SFadd=SFPDT×SFTKI where SFPDT and SFTKI refers to the observed effect after PDT or TKI treatment alone. SFadd was then compared to the observed effect of the combined treatment, SFcomb, using the synergy/antagonism value F F=log SFadd/log SFComb=log SFTKI+log SFPDT−log SFcorab
Antagonistic effects would result in negative F values. Significant deviations of F from zero were established through t-tests.

[3] = system: NCI-H460 human lung cancer cell line; experiment: CellTiter-Blue cell survival after PCI (TPCS2a, LumiSource illumination) with TKI, NCI-H460; details: for IC50: Homo sapiens, read-out: nilotinib dose needed to achieve 50% cell killing
[4] = at typical therapeutic doses per patient per day; cited from earlier work
[5] = system: multi-drug resistant NCI-ADR-RES cancer cell line; experiment: CellTiter-Blue cell survival after PCI (TPCS2a, LumiSource illumination) with TKI, NCI-ADR-RES; assay type: cell-based; details: for IC50: Homo sapiens, NCI/ADR-RES, read-out: nilotinib dose needed to achieve 50% cell killing
Procedure: TPCS2a was diluted into growth medium at 0.4 μg/ml (NCI-H460) or 0.8 μg/ml (NCI-ADR-RES) and 25 μl was added to each test well (final assay concentrations 0.2 μg/ml and 0.4 μg/ml, respectively).
The plates were washed 6 times with 50 μl wash buffer using an EMBLA 384-well plate washer.
The plates were washed as before.

Compound: Cc1ccc(NC(=O)c2ccc(CN3CCN(C)CC3)cc2)cc1Nc1nccc(-c2cccnc2)n1 [imatinib]
- cytotoxicity versus photochemical treatment alone ([1]; imatinib 5×10^-6 M, TPCS2a 0.1 μg/mL, illuminated 1, 2 or 4 minutes, 72 hour incubation): substantially higher cytotoxicity
- effect on cell survival ([1]; imatinib 5×10^-6 M, without illumination, TPCS2a-treated A431 cells, 72 hour incubation): no significant effect on cell survival
- cytotoxicity of imatinib alone (A431 cells; 0 s illumination, 72 hours): only modest cytotoxicity even at the highest dose
- cytotoxic effect with illumination (A431 cells; TPCS2a 0.1 μg/mL, 60 or 120 s illumination, corrected for photochemical treatment alone): illumination increased the cytotoxic effect of imatinib in a light dose-dependent manner

Compound: O=S(=O)(O)c1ccc(-c2c3nc(c(-c4ccc(S(=O)(=O)O)cc4)c4ccc([nH]4)c(-c4ccccc4)c4nc(c(-c5ccccc5)c5ccc2[nH]5)C=C4)C=C3)cc1 [PDT, meso-tetraphenylporphine with two sulfonate groups on adjacent phenyl rings]
- phosphorylated EGFR after PDT alone (EGFR; 1-4 hrs after PDT with LD50, A-431 cells): No decrease in phosphorylated EGFR was observed
- phospho-EGFR after PDT alone (EGFR; measured 1 hour after PDT, doses reducing relative viability up to 10% of untreated, A-431 cells): did not result in a pronounced reduction
- average survival fraction, PDT treatment only ([2]; TPPS2a 0.1 ug/ml and blue light, mean of three independent experiments): 0.61

Compound: Cc1cn(-c2cc(NC(=O)c3ccc(C)c(Nc4nccc(-c5cccnc5)n4)c3)cc(C(F)(F)F)c2)cn1 [nilotinib]
- IC50 ([3]; NCI-H460, 0 h): 6 µM
- IC50 ([3]; NCI-H460, 5 min): ~1.7 µM
- typical blood concentrations [4]: 1 to 5 µM
- IC50 ([5]; 0 h, 0 min illumination): ~20 µM
- IC50 ([5]; 4 min, 4 min illumination, TPCS2a 0.4 μg/ml): ~10 µM

Compound: C#Cc1cccc(Nc2ncnc3cc(OCCOC)c(OCCOC)cc23)c1 [erlotinib]
- erlotinib dose needed to induce 30% cell killing ([3]; 2 min illumination, TPCS2a 0.2 μg/ml): 14 µM
- erlotinib dose needed to induce 30% cell killing ([3]; 3 min illumination, TPCS2a 0.2 μg/ml): 4 µM
- potentiation of the effect by photochemical internalisation ([3]; erlotinib, NCI-H460, 3 min versus no illumination): 10 times
- erlotinib dose needed to induce 30% cell killing ([3]; no illumination): 43 µM
- typical blood concentrations [4]: 1 to 10 µM
- erlotinib dose at which 20% cell killing was achieved ([5]; 2 min illumination, TPCS2a 0.4 μg/ml): about 100 μM
- erlotinib dose at which 20% cell killing was achieved ([5]; 3 min illumination, TPCS2a 0.4 μg/ml): about 100 μM
- erlotinib dose at which 20% cell killing was achieved ([5]; 4 min illumination, TPCS2a 0.4 μg/ml): about 10 μM

Compound: tetraphenyl chlorin disulfonate [TPCS2a]
- cell survival, illumination alone ([1]; TPCS2a 0.1 μg/mL, illuminated 1, 2 or 4 minutes, no imatinib): cell survival decreases with increasing illumination time in a dose-dependent manner

Compound: COc1cc2ncnc(Nc3cccc(Cl)c3)c2cc1OC [AG1478, Tyrphostin AG1478]
- EGFR phosphorylation (EGFR; 4 μM AG1478 alone, 1-4 hrs, A-431 cells): strong attenuation of EGFR phosphorylation
- EGFR phosphorylation, combination therapy (EGFR; PDT (LD50) and AG1478, A-431 cells): same decrease in EGFR phosphorylation as that observed with the AG1478 treatment alone
- synergy/antagonism value F ([2]; 4 uM AG1478 with PDT): 0.18±0.09
- synergy/antagonism value F ([2]; 5 uM AG1478 with PDT): 0.17±0.08
- average survival fraction, TKI treatment only ([2]; AG1478 72 hrs, mean of three independent experiments (FIG. 6: 4 and 5 μM TKI)): 0.41
- average survival fraction, two treatments combined ([2]; AG1478 administrated directly after light exposure (PDT), mean of three independent experiments): 0.16
- synergy/antagonism value F, mean and st. error ([2]; AG1478 between 1 and 5 μM with PDT, p=0.005): 0.15 ± 0.05
- synergy/antagonism parameter F of the experiments ([2]; AG1478 with PDT, three independent experiments): positive and statistically significant from 0
- calculated additive effect of the two treatments (SFadd) ([2]; SFPDT×SFTKI): 0.24
